Ends that are not written are not given here.
Legend:
S. aureus ATCC 29213 = assay: MIC, broth dilution; assay type: cell-based, Staphylococcus aureus; settings: Table 5; STIP3 variants, highest concentration 100 μg/mL
How it was run: (§1)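 MIC defined as the lowest peptide level giving no growth after overnight standing incubation at 37° C. Bacteria at OD 6×10^−4 in cation-adjusted MH broth met 2-fold serial peptide dilutions; peptide purity 95%.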

[1] = tested on: S. aureus ATCC 33592 (MRSA SCCmec type III); assay: MIC, broth dilution; assay type: cell-based, Staphylococcus aureus; settings: Table 5; STIP3 variants, highest concentration 100 μg/mL
How it was run: as §1

[2] = tested on: S. aureus ATCC BAA-1683 (MRSA SCCmec type IV); assay: MIC, broth dilution; assay type: cell-based, Staphylococcus aureus; settings: Table 5; STIP3 variants, highest concentration 100 μg/mL
How it was run: as §1

[3] = tested on: S. aureus ATCC BAA-2094 (MRSA SCCmec type V); assay: MIC, broth dilution; assay type: cell-based, Staphylococcus aureus; settings: Table 5; STIP3 variants, highest concentration 100 μg/mL
How it was run: as §1

[4] = tested on: S. aureus ATCC BAA-2313 (MRSA SCCmec type XI); assay: MIC, broth dilution; assay type: cell-based, Staphylococcus aureus; settings: Table 5; STIP3 variants, highest concentration 100 μg/mL
How it was run: as §1

[5] = tested on: S. aureus ATCC BAA-41 (MRSA SCCmec type II); assay: MIC, broth dilution; assay type: cell-based, Staphylococcus aureus; settings: Table 5; STIP3 variants, highest concentration 100 μg/mL
How it was run: as §1

[6] = tested on: S. aureus ATCC BAA-42 (MRSA SCCmec type VI); assay: MIC, broth dilution; assay type: cell-based, Staphylococcus aureus; settings: Table 5; STIP3 variants, highest concentration 100 μg/mL
How it was run: as §1

[7] = tested on: S. aureus ATCC BAA-44 (MRSA SCCmec type I); assay: MIC, broth dilution; assay type: cell-based, Staphylococcus aureus; settings: Table 5; STIP3 variants, highest concentration 100 μg/mL
How it was run: as §1

[8] = tested on: S. aureus / MRSA (ATCC MP-2 panel); assay type: cell-based, Staphylococcus aureus; settings: MIC screen, in words
Protocol: In order to begin to characterize STIP3-1 and potential sites amenable to modification, an alanine scanning experiment was performed. A total of 16 peptides with single alanine substitutions were assessed to inform on the importance of individual residues to antimicrobial activity. […] Next a series of thirty STIP3-1 variants were designed, guided by the aforementioned alanine scan and a previous report that the central α-helical core of the S. aureus δ-toxin could be converted into AMP through the inclusion of additional lysine residues^39. The collection included ten members with single substitutions relative to STIP3-1 and others that incorporated a number of changes that were designed to increase overall and local cationic charge as well as hydrophobic character (Table 5). Each of the STIPs was screened, including STIP3-1 to STIP-31, for antibiotic activity against a methicillin-sensitive S. aureus test organism and a panel of 7 MRSA strains defined by distinct SCCmec genotypes (FIG. 2; ATCC MP-2).
Determination of minimum inhibitory concentrations. The MICs were measured for bioactive peptides identified from the initial screen. For bacterial studies, cation-adjusted Mueller Hinton (MH) broth was used as the growth medium whereas YPD was used for C. albicans. Bacterial cultures were diluted to a OD value of 6×10^−4 in MH broth and a 180 μl volume was mixed with 20 μl of peptide arrayed as 2-fold dilution series in a 96-well plate. For the positive control, 20 μl of sterile water was used. Plates were incubated as standing cultures overnight at 37° C. The lowest peptide concentration that resulted no observed microbial growth after an overnight treatment was defined as the MIC.

[9] = tested on: Mannheimia haemolytica ATCC 33393; assay: MIC, broth dilution; assay type: cell-based; settings: Table 11; highest concentration 25 μg/mL
How it was run: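 Read-out is the lowest peptide concentration showing no growth after an overnight standing culture at 37 °C. Two-fold serial dilutions of 95%-pure peptide were tested against M. haemolytica ATCC 33393 at OD 6×10^−4 in cation-adjusted MH broth.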

C. albicans MYA-2876 = assay: MIC, YPD broth; assay type: cell-based, Candida albicans; settings: Table 8
How it was run: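 Yeast cells were diluted in YPD broth, and 180 μl aliquots were mixed with 20 μl of peptide from 2-fold serial dilutions in flat-bottom 96-well microtitre plates. Wells receiving 20 μl sterile water served as controls. After standing incubation overnight at 37° C, the MIC was taken as the lowest peptide concentration with no visible microbial growth.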

C. albicans Y537 = assay: MIC, YPD broth; assay type: cell-based, Candida albicans; settings: Table 8
[10] = tested on: Candida duobushaemulonii AR 391; assay: MIC, YPD broth, CDC and FDA AR Candida isolate panel; assay type: cell-based; settings: Table 9 below the line: only 200 or 100 μg/mL tested; values reported as 100 are ≤100 μg/mL
How it was run: (§2)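 Inhibitory concentration was assigned over a 2-fold peptide dilution range after incubation without shaking at 37° C overnight; inoculum was set to optical density […] and water-only wells served as control.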

[11] = tested on: Candida duobushaemulonii AR 392; assay: as above; assay type: cell-based; settings: Table 9 below the line: only 200 or 100 μg/mL tested; values reported as 100 are ≤100 μg/mL
How it was run: as §2

[12] = tested on: Candida duobushaemulonii AR 394; assay: as above; assay type: cell-based; settings: Table 9 below the line: only 200 or 100 μg/mL tested; values reported as 100 are ≤100 μg/mL
How it was run: as §2

[13] = tested on: Candida haemulonii AR 393; assay: as above; assay type: cell-based; settings: Table 9 below the line: only 200 or 100 μg/mL tested; values reported as 100 are ≤100 μg/mL
How it was run: as §2

[14] = tested on: Candida haemulonii AR 395; assay: as above; assay type: cell-based; settings: Table 9 below the line: only 200 or 100 μg/mL tested; values reported as 100 are ≤100 μg/mL
How it was run: as §2

Candida krusei AR 397 = assay: as above; assay type: cell-based; settings: Table 9 below the line: only 200 or 100 μg/mL tested; values reported as 100 are ≤100 μg/mL
How it was run: as §2

[15] = tested on: Candida lusitaniae AR 398; assay: as above; assay type: cell-based; settings: Table 9 below the line: only 200 or 100 μg/mL tested; values reported as 100 are ≤100 μg/mL
How it was run: as §2

Kodamae ohmeri AR 396 = assay: as above; assay type: cell-based; settings: Table 9 below the line: only 200 or 100 μg/mL tested; values reported as 100 are ≤100 μg/mL
How it was run: as §2

[16] = tested on: Saccharomyces cerevisiae AR 399; assay: as above; assay type: cell-based; settings: Table 9 below the line: only 200 or 100 μg/mL tested; values reported as 100 are ≤100 μg/mL
How it was run: as §2

[17] = tested on: Saccharomyces cerevisiae AR 400; assay: as above; assay type: cell-based; settings: Table 9 below the line: only 200 or 100 μg/mL tested; values reported as 100 are ≤100 μg/mL
How it was run: as §2

TVKFLVKWILKWVAKFA [STIP3-25, TVKFLVKWILKWVAKFA]
MIC S. aureus ATCC 29213 (S. aureus ATCC 29213): > (no inhibition was observed at the highest concentration of peptide tested: 100 μg/mL for the STIP3 variants) | MIC S. aureus ATCC 33592 (III) [1]: > (no inhibition was observed at the highest concentration of peptide tested: 100 μg/mL for the STIP3 variants) | MIC S. aureus ATCC BAA 1683 (IV) [2]: > (no inhibition was observed at the highest concentration of peptide tested: 100 μg/mL for the STIP3 variants) | MIC S. aureus ATCC BAA 2094 (V) [3]: > (no inhibition was observed at the highest concentration of peptide tested: 100 μg/mL for the STIP3 variants) | MIC S. aureus ATCC BAA 2313 (XI) [4]: > (no inhibition was observed at the highest concentration of peptide tested: 100 μg/mL for the STIP3 variants) | MIC S. aureus ATCC BAA 41 (II) [5]: > (no inhibition was observed at the highest concentration of peptide tested: 100 μg/mL for the STIP3 variants) | MIC S. aureus ATCC BAA 42 (VI) [6]: > (no inhibition was observed at the highest concentration of peptide tested: 100 μg/mL for the STIP3 variants) | MIC S. aureus ATCC BAA 44 (I) [7]: > (no inhibition was observed at the highest concentration of peptide tested: 100 μg/mL for the STIP3 variants) | inhibition of S. aureus [8]: incapable of inhibiting S. aureus | MIC (μg/mL) M. haemolytica [9]: > (> symbol indicates that no inhibition was observed at the highest concentration of peptide tested: 25 μg/mL) | MIC C. albicans MYA-2876 (C. albicans MYA-2876): 25 µg/mL | MIC C. albicans Y537 (C. albicans Y537): 25 µg/mL | MIC (μg/mL) Candida duobushaemulonii AR 391 [10]: > (values below the line were determined using two concentrations of peptide 200 or 100 μg/mL) | MIC (μg/mL) Candida duobushaemulonii AR 392 [11]: > (values below the line were determined using two concentrations of peptide 200 or 100 μg/mL) | MIC (μg/mL) Candida duobushaemulonii AR 394 [12]: > (values below the line were determined using two concentrations of peptide 200 or 100 μg/mL) | MIC (μg/mL) Candida haemulonii AR 393 [13]: > (values below the line were determined using two concentrations of peptide 200 or 100 μg/mL) | MIC (μg/mL) Candida haemulonii AR 395 [14]: > (values below the line were determined using two concentrations of peptide 200 or 100 μg/mL) | MIC (μg/mL) Candida krusei AR 397 (Candida krusei AR 397): > (values below the line were determined using two concentrations of peptide 200 or 100 μg/mL) | MIC (μg/mL) Candida lusitaniae AR 398 [15]: ≤ 100 µg/mL | MIC (μg/mL) Kodamae ohmeri AR 396 (Kodamae ohmeri AR 396): > (values below the line were determined using two concentrations of peptide 200 or 100 μg/mL) | MIC (μg/mL) Saccharomyces cerevisiae AR 399 [16]: ≤ 100 µg/mL | MIC (μg/mL) Saccharomyces cerevisiae AR 400 [17]: ≤ 100 µg/mL

Reference: patent publication US12370235B2, “Synthetic, non-natural antimicrobial peptides inspired by Staphylococcus auricularis delta toxin” (University of Saskatchewan, priority 2021, dated 2025)
